# From article PMC3502552, “A dimerized urea-based inhibitor of the prostate-specific membrane antigen for ^68Ga-PET imaging of prostate cancer” (EJNMMI Research, 2012)
# What was measured:
# PSMA+ LNCaP cells = test: Cell binding and internalization in LNCaP cells; type: cell-based, human
# Experimental: (§1) Internalization experiments were performed as previously described. Briefly, 10^5 LNCaP or PC-3 cells were seeded in poly-L-lysine-coated 24-well cell culture plates 24 h before incubation. After washing with PBS, the cells were incubated with the radiolabeled compounds ^68Ga]6 or ^68Ga]7 (25 nM final concentration) for 45 min at 37°C and at 4°C, respectively. To determine specific cellular uptake, cells were blocked with 2-(phosphonomethyl)-pentanedioic acid (PMPA, Axxora, Loerrach, Germany) to a final concentration of 100 μM. Cellular uptake was terminated by washing four times with 1 mL of ice-cold PBS. To remove surface-bound radioactivity, cells were incubated twice with 0.5 mL glycine-HCl in PBS (50 mM, pH = 2.8) for 5 min. The cells were washed with 1 mL of ice-cold PBS and lysed using 0.3 N NaOH (0.5 mL). The surface-bound and the internalized fractions were measured in a gamma counter.
# PSMA− PC-3 cells = test: Cell binding and internalization in PC-3 cells; type: cell-based, human; settings: 25 nM, 45 min
# Experimental: as §1
# LNCaP cells = test: Cell surface retention (efflux); type: cell-based, human; settings: 2-PMPA added to avoid rebinding, compared to monomer
# Experimental: The determination of cell surface retention was performed in accordance to a previously described experiment. Briefly, 5 × 10^6 LNCaP cells in a 320-μL RPMI 1640 medium were incubated with ^68Ga]6 or ^68Ga]7 (25 nM final concentration), respectively, for 45 min at 37°C. Cells were washed three times and resuspended in the RPMI 1640 medium (320 μL); samples were taken as a control for total cell-associated activity (cell surface bound and internalized). Subsequently, 0.5 μL of a 2-PMPA solution (100 mmol/L in DMSO) was added to avoid rebinding and to enhance the competitive pressure on releasing the radioactivity from the cell surface. At indicated time points, 10-μL samples were taken and transferred on top of a 400-μL microcentrifuge tube containing 350 μL of a 75:25 mixture of silicon oil (density 1.05; Aldrich), and mineral oil (density 0.872; Acros, Thermo Fisher Scientific). Subsequently, the tubes were centrifuged at 12,000 rpm for 2 min to separate cellular radioactivity and radioactivity solved in the medium. After freezing in liquid nitrogen, the bottom tips containing the cell pellet were cut off. The cell pellets and the medium were measured in a gamma counter to determine cellular uptake
# (1) %uptake=100×cpminpellet/cpminpellet+cpminsupernatant
# LNCaP tumor xenografts = test: Biodistribution in mice bearing LNCaP tumor xenografts; type: in vivo, BALB/c nu/nu mice; settings: 1 h post-injection
# Experimental: (§2) Male BALB/c nu/nu mice of 7 to 8 weeks old (Charles River Laboratories, Wilmington, MA, USA) were subcutaneously inoculated into the right trunk with 5 × 10^6 cells of either LNCaP or PC-3 (both in 50% Matrigel; Becton Dickinson, Heidelberg, Germany). The tumors were allowed to grow for 3 to 4 weeks until approximately 1 cm^3 in size. The ^68Ga-radiolabeled compounds were injected into a tail vein (1 to 2 MBq/mouse; 0.1 to 0.2 nmol). At 1 h after injection, the animals were sacrificed. Organs of interest were dissected, blotted dry, and weighed. The radioactivity was measured using a gamma counter and calculated as percentage injected dose per gram (% ID/g).
# PSMA− PC-3 tumor = test: Biodistribution in PC-3 tumor-bearing mice; type: in vivo, BALB/c nu/nu mice; settings: 1 h post-injection; PSMA− PC-3 tumor-bearing mice
# Experimental: as §2, with “At 1 h after injection, the animals were sacrificed.” left out
# [1] = Radiochemical stability in human serum and PBS; type: in vitro ADME; settings: 2 h incubation at 37°C
# Experimental: (§3) The radiochemical stability was analyzed in both phosphate-buffered saline (PBS) and human serum. After 2 h of incubation at 37°C, an equal volume of CH3CN was added to the samples to precipitate serum proteins. Subsequently, the samples were centrifuged for 5 min at 13,000 rpm. Aliquots of the supernatant and the PBS sample were analyzed via RP-HPLC. In addition, serum samples were run on a Superdex 75 GL 5/150 gel filtration column (GE Healthcare, Munich, Germany) to analyze potential protein binding (PBS pH 7 as eluent).
# apo-transferrin = apo-transferrin (Homo sapiens, UniProt P02787); test: Complex stability against human transferrin / protein binding (size exclusion chromatography); type: in vitro ADME; settings: after incubation in human serum or in the presence of apo-transferrin; 2 h, 37°C
# Chain of apo-transferrin (P02787 20-698): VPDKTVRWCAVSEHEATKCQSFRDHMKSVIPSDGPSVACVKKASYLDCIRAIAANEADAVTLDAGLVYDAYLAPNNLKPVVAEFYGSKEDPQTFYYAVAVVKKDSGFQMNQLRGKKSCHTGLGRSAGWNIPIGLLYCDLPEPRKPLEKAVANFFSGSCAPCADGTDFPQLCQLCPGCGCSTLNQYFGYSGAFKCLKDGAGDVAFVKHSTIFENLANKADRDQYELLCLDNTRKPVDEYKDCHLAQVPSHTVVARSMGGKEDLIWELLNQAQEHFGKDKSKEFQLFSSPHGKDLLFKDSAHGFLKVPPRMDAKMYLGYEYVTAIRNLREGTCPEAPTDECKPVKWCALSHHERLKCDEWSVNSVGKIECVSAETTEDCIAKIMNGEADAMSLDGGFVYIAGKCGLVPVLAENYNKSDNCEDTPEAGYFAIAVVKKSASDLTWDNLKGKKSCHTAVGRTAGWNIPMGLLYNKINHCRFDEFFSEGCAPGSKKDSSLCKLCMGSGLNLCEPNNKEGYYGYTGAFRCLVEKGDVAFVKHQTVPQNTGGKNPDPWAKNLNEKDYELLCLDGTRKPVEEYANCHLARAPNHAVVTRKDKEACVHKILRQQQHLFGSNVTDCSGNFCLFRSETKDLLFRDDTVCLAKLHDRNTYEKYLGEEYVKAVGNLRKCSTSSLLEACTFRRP
# Experimental: as §3, with “eluent). To analyze the complex stability against human transferrin, a 400-μL aliquot was added to 250 μg of apo-transferrin in PBS at pH 7 and incubated at 37°C (water bath) for 2 h. The complex stability was determined using a Superdex 75 GL 5/150 short column with PBS pH 7 as eluent.” for “eluent).”
# LNCaP tumor xenograft = test: Dynamic microPET in mice bearing LNCaP tumor xenografts; type: in vivo; settings: L-isomer versus D-isomer
# Experimental: For the microPET studies, 10 to 25 MBq of either [^68Ga]6 or [^68Ga]7 in a volume of 0.15 mL (approximately 0.5 nmol) was injected via a lateral tail vein into mice bearing LNCaP tumor xenografts. The anesthetized animals (2% sevoflurane, Abbott, Wiesbaden, Germany) were placed in prone position into an Inveon small animal PET scanner (Siemens, Knoxville, TN, USA) to perform a 50-min dynamic microPET scan starting at 1 min post-injection followed by a 20-min static scan. All animal experiments complied with the current laws of the Federal Republic of Germany.
# [2] = i.v. tail vein, 0.1 to 0.2 nmol
smiles,measurement,setting,value
"O=C(O)CC[C@H](NC(=O)N[C@@H](CCCCNC(=O)CCCCCNC(=O)CCc1ccc(O)c(CN(CCN(CC(=O)O)Cc2cc(CCC(=O)NCCCCCC(=O)NCCCC[C@H](NC(=O)N[C@@H](CCC(=O)O)C(=O)O)C(=O)O)ccc2O)CC(=O)O)c1)C(=O)O)C(=O)O [[^68Ga]7, metal not drawn]",Internalized fraction,"PSMA+ LNCaP cells; 25 nM, 45 min",approximately 25%
same,Cellular uptake,"PSMA+ LNCaP cells; 25 nM, 45 min, percentage of applied radioactivity bound to 10^6 cells",40.04 ± 6.09%
same,Uptake in the presence of 2-PMPA,PSMA+ LNCaP cells; 100 μM 2-PMPA,blocked
same,Binding to PSMA− PC-3 cells,PSMA− PC-3 cells,no binding
same,Cell surface retention (efflux experiment),LNCaP cells,prolonged cell surface retention
same,Enhanced tumor uptake of dimer versus monomer (factor),LNCaP tumor xenografts; LNCaP tumor,approximately 1.7
same,Tumor-to-blood ratio (T/B),LNCaP tumor xenografts; LNCaP tumor,26.5
same,Kidney uptake after co-injection of PMPA,LNCaP tumor xenografts; blocked with 2 mg/kg 2-PMPA,8.29 ± 0.83 % ID/g
same,Spleen uptake after blocking,LNCaP tumor xenografts; blocked with 2 mg/kg 2-PMPA,0.67 ± 0.11 % ID/g
same,"Organ distribution, Blood",LNCaP tumor xenografts; [2],0.31 ± 0.03 % ID/g
same,"Organ distribution, Brain",LNCaP tumor xenografts; [2],0.17 ± 0.01 % ID/g
same,"Organ distribution, Heart",LNCaP tumor xenografts; [2],0.90 ± 0.12 % ID/g
same,"Organ distribution, Intestine",LNCaP tumor xenografts; [2],0.57 ± 0.14 % ID/g
same,"Organ distribution, Kidney",LNCaP tumor xenografts; [2],133.43 ± 18.88 % ID/g
same,"Organ distribution, Liver",LNCaP tumor xenografts; [2],1.29 ± 0.11 % ID/g
same,"Organ distribution, Lung",LNCaP tumor xenografts; [2],2.25 ± 0.24 % ID/g
same,"Organ distribution, Muscle",LNCaP tumor xenografts; [2],0.90 ± 0.01 % ID/g
same,"Organ distribution, Spleen",LNCaP tumor xenografts; [2],17.88 ± 4.53 % ID/g
same,"Organ distribution, LNCaP tumor",LNCaP tumor xenografts; n = 5,8.22 ± 1.78 % ID/g
same,"Organ distribution, PC-3 tumor",PSMA− PC-3 tumor,0.93 ± 0.53 % ID/g
same,Intact compound by HPLC analysis,[1],99%
same,Changes in size exclusion chromatography,apo-transferrin,no changes in size exclusion chromatography were detected
same,Tumor time-activity behaviour in dynamic PET,LNCaP tumor xenograft,accumulation in the tumor
